For 50 compounds, EC50 and IC50 results are on record in patent publication US20210220408A1, “ARYL HYDROCARBON RECEPTOR ANTAGONISTS AND METHODS OF USE” (Magenta Therapeutics Inc., priority 2018, published 2021).

What is called EC50 is the concentration giving half of the maximal effect. For orientation: IC50 means the midpoint of a concentration-inhibition curve.

Test [1] has as its system mobilized peripheral blood CD34+ cells. The test is described as follows: CD34+ expansion assay. It is filed as cell-based. The note with it: Homo sapiens; read-out: CD34 Frequency EC50. The method, then: Approximately 3,000 mobilized peripheral blood CD34+ cells were plated per well in 384-well plate at a final volume of 45 μL in HSC growth media (SFEM supplemented with Pen/Strep, 50 ng/mL FLT3L, TPO, SCF and IL-6). Serial dilutions were made in HSC growth media with a top final concentration of 10 μM. 5 μL 10× stock was added to each well. The plate was gently tapped on all sides and incubated for 7 days at 37° C./5% CO2. On day 7, the media was aspirated on a Biotek plate washer and 30 μL staining solution was added to the cells with antibodies against CD34-PE, CD90-APC, CD45RA-PE-CF594 in PBS. Cells were washed once in PBS and resuspended in 80 μL for final volume. 40 μL was acquired by flow cytometry (BD Celesta).

The target of test [2] is T1, aryl hydrocarbon receptor (AHR) (Homo sapiens, UniProt P35869).
T1 sequence (P35869 11-848): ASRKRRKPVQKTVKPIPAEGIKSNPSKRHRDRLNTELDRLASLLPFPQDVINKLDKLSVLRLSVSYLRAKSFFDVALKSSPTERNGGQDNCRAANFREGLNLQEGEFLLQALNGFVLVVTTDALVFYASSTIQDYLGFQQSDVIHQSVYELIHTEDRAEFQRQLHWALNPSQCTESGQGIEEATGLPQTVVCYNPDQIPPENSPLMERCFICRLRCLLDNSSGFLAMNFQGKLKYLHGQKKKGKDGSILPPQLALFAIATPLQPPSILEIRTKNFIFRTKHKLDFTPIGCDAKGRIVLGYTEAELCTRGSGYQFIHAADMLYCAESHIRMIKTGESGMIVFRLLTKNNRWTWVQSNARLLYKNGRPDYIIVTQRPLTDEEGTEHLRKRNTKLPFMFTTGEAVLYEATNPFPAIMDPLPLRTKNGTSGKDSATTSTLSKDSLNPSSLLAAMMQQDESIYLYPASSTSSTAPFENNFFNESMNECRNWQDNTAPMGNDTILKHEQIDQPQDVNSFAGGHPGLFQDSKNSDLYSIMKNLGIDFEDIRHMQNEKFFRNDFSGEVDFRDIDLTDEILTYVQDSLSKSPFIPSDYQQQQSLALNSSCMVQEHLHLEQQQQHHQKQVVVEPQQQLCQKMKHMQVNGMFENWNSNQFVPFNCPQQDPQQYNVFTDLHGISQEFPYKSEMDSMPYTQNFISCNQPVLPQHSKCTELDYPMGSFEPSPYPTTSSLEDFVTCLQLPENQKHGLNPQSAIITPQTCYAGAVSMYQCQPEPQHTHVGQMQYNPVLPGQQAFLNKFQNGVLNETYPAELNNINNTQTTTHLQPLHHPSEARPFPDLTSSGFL
Briefly: DRE-Luciferase reporter high-throughput screen (AHR antagonist, VAF347-activated). For orientation: A reporter such as luciferase makes a cellular process visible.

On to `CCN(C)C(=O)c1cnc(-c2noc3ccccc23)s1` [compound 65], for which the EC50 in test [1] fell in the range of 1000 to 5000 nM. In test [2], the IC50 lay in the range of 500 to 1000 nM.
On the same counts, the results for `CC(=O)N(C)Cc1cccc(NC(=O)c2n[nH]c3ccccc23)c1` [compound 30] are no less than 5000 nM and 500 to 1000 nM.
With `O=[N+]([O-])c1ccc(-c2cn3nc(C(F)(F)F)sc3n2)cc1` [compound 68], the EC50 in test [1] was 500 to 1000 nM. Further, in test [2], the IC50 lay in the range of 200 to 500 nM.
As to `COc1cc([N+](=O)[O-])ccc1NC(=O)Nc1nc2c(s1)CCCC2` [compound 121], the half-maximal effective concentration (EC50) in test [1] lay within 1000 to 5000 nM. The IC50 in test [2] lay in the range of 500 to 1000 nM.
The matching figures for `Cc1cccc(-c2nc(-c3c[nH]c(C(=O)N4CCCC4)c3)cs2)c1` [compound 126]: 1000 to 5000 nM and 500 to 1000 nM.
Regarding `COc1cccc(NC(=O)c2cc3c(=O)n4ccccc4nc3n2C)c1` [compound 18], the concentration giving a half-maximal response (EC50) in test [1] is less than 500 nM. The compound also gave an IC50 in test [2] of 200 to 500 nM.
On to `Cc1nn2cc(-c3ccc(-c4ccccc4)cc3)nc2s1` [compound 69], for which the EC50 in test [1] was in the range of 500 to 1000 nM. In test [2], this compound registered an IC50 of 200 to 500 nM.
On the same counts, the results for `Cc1ccc(-n2nnc(-c3nc4ccccc4s3)c2N)cc1` [compound 94] are less than 500 nM and 500 to 1000 nM.
As for `Cc1ccc(NC(=O)c2cccc(OCc3c(C)noc3C)c2)c(Cl)c1` [compound 3], the EC50 in test [1] was 500 to 1000 nM. The compound further displayed an IC50 in test [2] of 200 to 500 nM.
Regarding `Cn1c(SCc2ccc(-c3ccccc3)cc2)nnc1C(F)(F)F` [compound 95], in test [1], the EC50 is 1000 to 5000 nM. In test [2], this compound registered an IC50 of 500 to 1000 nM.
For `CCc1ccc(C(=O)Nc2scc(-c3ccc(Cl)cc3)c2C(N)=O)s1` [compound 43], the EC50 in test [1] was in the range of 500 to 1000 nM. For the same compound, the IC50 in test [2] fell in the range of 200 to 500 nM.
The matching figures for `COc1c(C)cccc1C(=O)Nc1cc(-c2ccc(F)cc2)nn1C` [compound 11]: 1000 to 5000 nM and 500 to 1000 nM.
The matching figures for `CC(=O)c1c(C)nc2nc(SCc3cccc(Cl)c3)nn2c1C` [compound 125]: 1000 to 5000 nM and 500 to 1000 nM.
As for `O=C(Nc1ccc(N2CCCC2)nc1)c1cc2c(F)cccc2s1` [compound 46], in test [1], the EC50 was in the range of 500 to 1000 nM. The IC50 in test [2] lay within 200 to 500 nM.
On the same counts, the results for `Cc1ccn2c(-c3csc(Nc4ccccn4)n3)c(C)nc2c1` [compound 60] are 1000 to 5000 nM and 500 to 1000 nM.
For `Cc1ccc(C)c(NC(=O)c2nc3c(s2)CCCN3c2ccc(C)nn2)c1` [compound 29], the concentration giving a half-maximal response (EC50) in test [1] was 1000 to 5000 nM. The compound also returned an IC50 in test [2] of 500 to 1000 nM.
On the same counts, the results for `Cc1cn2nc(NCCOc3ccc(F)cc3)sc2n1` [compound 70] are 500 to 1000 nM and 200 to 500 nM.
On the same counts, the results for `CCCCOc1ccc(C(=O)Nc2cccc(C(=O)OCC(C)C)c2)cc1` [compound 9] are no less than 5000 nM and 500 to 1000 nM.
As to `Cc1ccc(Cc2c(C)nc(Nc3nc(C)c4ccc(C)cc4n3)[nH]c2=O)cc1` [compound 124], the EC50 in test [1] lay within 1000 to 5000 nM. In test [2], this compound showed an IC50 of 200 to 500 nM.
In the case of `Fc1ccc(/C=N\N2CCN(c3ccccn3)CC2)cc1` [compound 77], the EC50 in test [1] is no less than 5000 nM. The compound further had an IC50 in test [2] of 500 to 1000 nM.
In the case of `Cc1cc(Oc2ncccc2C#N)ccc1NC(=O)c1oc(Br)cc1C` [compound 26], the EC50 in test [1] fell in the range of 1000 to 5000 nM. In addition, the IC50 in test [2] lay within 200 to 500 nM.
As to `C/C(=N\Nc1ncc(Br)cn1)c1cccc([N+](=O)[O-])c1` [compound 112], the EC50 in test [1] is less than 500 nM. For the same compound, the IC50 in test [2] was in the range of 500 to 1000 nM.
Consider `COC(=O)c1sc(NC(=O)c2cc(C)n(C)n2)cc1C` [compound 41], for which the EC50 in test [1] is no less than 5000 nM. This compound also came in with an IC50 in test [2] of less than 200 nM.
On the same counts, the results for `Cc1ccc(C(=O)Nc2ccc(-c3nccs3)cc2)cc1` [compound 8] are 1000 to 5000 nM and 500 to 1000 nM.
Regarding `O=C1CN(C(=O)c2sc3ccccc3c2Cl)c2ccccc2N1` [compound 132], the EC50 in test [1] is 1000 to 5000 nM. This compound returned an IC50 in test [2] of 500 to 1000 nM.
On the same counts, the results for `Cc1cc(C(=O)NNC(=O)c2cnn(-c3ccccc3C)c2C(F)(F)F)c(C)o1` [compound 139] are no less than 5000 nM and 500 to 1000 nM.
On the same counts, the results for `COc1ccc(-c2n[nH]c3c2C(=O)CC(c2ccccc2)C3)cc1` (stereo not shown) [compound 117] are less than 500 nM and less than 200 nM.
The matching figures for `Cc1ccc(NC(=O)c2sc3nc(N)c(C#N)cc3c2N)cc1Cl` [compound 19]: less than 500 nM and less than 200 nM.
On to `Cc1ccc(-c2c(C)sc(NC(=O)c3cccnc3)c2C(N)=O)cc1` [compound 42], for which the EC50 in test [1] is 1000 to 5000 nM. The compound also registered an IC50 in test [2] of 500 to 1000 nM.
`Cc1cccc(C(=O)Nc2ccc(-c3nc4ncccc4o3)cc2)c1` [compound 4]: the EC50 in test [1] lay in the range of 500 to 1000 nM. The IC50 in test [2] is 500 to 1000 nM.
For `CC(C)(C)c1ccc(O)c(NC(=O)c2cnc3ccccn3c2=O)c1` [compound 27], in test [1], the concentration for a half-maximal effect (EC50) was in the range of 1000 to 5000 nM. The IC50 in test [2] lay within 500 to 1000 nM.
Turning to `Cc1cnn(-c2nc(-c3ccc(F)cc3)cc(C(F)(F)F)n2)c1` [compound 83], the EC50 in test [1] is less than 500 nM. The IC50 in test [2] was less than 200 nM.
`Cc1c(Cl)c(=O)oc2cc(OCc3ccc(Cl)cc3)ccc12` [compound 137]: the EC50 in test [1] is no less than 5000 nM. The same compound gave an IC50 in test [2] of 500 to 1000 nM.
On to `Cc1ccc(NC(=O)c2cn3ccccc3n2)cc1` [compound 21], for which the EC50 in test [1] was 500 to 1000 nM. The IC50 in test [2] was 200 to 500 nM.
The matching figures for `Cc1cc(-c2nnc3sc(-c4ccc(F)cc4)nn23)[nH]n1` [compound 71]: 500 to 1000 nM and 500 to 1000 nM.
The matching figures for `O=c1[nH]c2ccc(-c3csc(-c4ccccn4)n3)cc2[nH]1` [compound 58]: no less than 5000 nM and 500 to 1000 nM.
Turning to `O=C(Nc1ccc(-c2nnc3n2CCCCC3)cc1)c1cccc2cccnc12` [compound 24], in test [1], the EC50 is 500 to 1000 nM. In test [2], this compound yielded a half-maximal inhibitory concentration (IC50) of 200 to 500 nM.
For `CC(=O)N1CCN(c2nc3cc(C(F)(F)F)ccc3s2)CC1` [compound 74], the 50% effective concentration (EC50) in test [1] is 1000 to 5000 nM. Further, the IC50 in test [2] was in the range of 500 to 1000 nM.
On the same counts, the results for `Cc1noc(C)c1COc1cccc(C(=O)/N=c2/sccn2C)c1` [compound 118] are less than 500 nM and less than 200 nM.
As for `CCc1cc(C(=O)Nc2ccc(SC)cc2)sc1C` [compound 38], the EC50 in test [1] was in the range of 1000 to 5000 nM. Moreover, the IC50 in test [2] was 500 to 1000 nM.
In the case of `Cc1ccc2cc(C(=O)N3CCN(S(=O)(=O)c4cccs4)CC3)[nH]c2c1` [compound 78], in test [1], the EC50 is no less than 5000 nM. Besides, the concentration for half-maximal inhibition (IC50) in test [2] was in the range of 500 to 1000 nM.
On the same counts, the results for `CC(C)n1nnc2cc(C(=O)Nc3ccc(Cl)cc3)ccc21` [compound 17] are less than 500 nM and 500 to 1000 nM.
In the case of `OCCCc1nc2n(n1)C(c1cccc(Br)c1)C=C(c1ccc(Cl)cc1)N2` (stereo not shown) [compound 109], in test [1], the EC50 was in the range of 500 to 1000 nM. In addition, the IC50 in test [2] was 200 to 500 nM.
On the same counts, the results for `Clc1ccc(-c2nc(-c3cnccn3)no2)cc1` [compound 140] are no less than 5000 nM and 500 to 1000 nM.
`COc1ccccc1C(=O)Nc1cccc(-c2cn3ccsc3n2)c1` [compound 6]: in test [1], the EC50 is 1000 to 5000 nM. This compound also had an IC50 in test [2] of 500 to 1000 nM.
The matching figures for `N#Cc1ccc(-c2ccncc2)nc1SCc1ccccn1` [compound 89]: less than 500 nM and 500 to 1000 nM.
Consider `Cc1ccc(-c2ccc3c(C)nn(-c4ccccn4)c3n2)cc1` [compound 105], for which the EC50 in test [1] lay in the range of 1000 to 5000 nM. In addition, the concentration for half-maximal inhibition (IC50) in test [2] lay within 200 to 500 nM.
For `CCc1cccc2c(-c3cn4cc(S(N)(=O)=O)ccc4n3)c[nH]c12` [compound 100], the EC50 in test [1] was less than 500 nM. Further, the half-maximal inhibitory concentration (IC50) in test [2] is less than 200 nM.
Regarding `COc1ccc(-n2nnc(C(=O)Nc3ccccc3C(F)(F)F)c2N)cc1` [compound 28], the EC50 in test [1] lay within 1000 to 5000 nM. This compound had an IC50 in test [2] of 200 to 500 nM.
Consider `COc1ccc(Nc2nc(-c3ccccn3)cs2)cc1` [compound 59], for which the EC50 in test [1] is less than 500 nM. Besides, the IC50 in test [2] lay within 500 to 1000 nM.
